This experiment has as its system Ba/F3 cells expressing EGFR-Del/T790M. Put plainly: tumor model using Ba/F3 cells expressing EGFR-Del/T790M. The class given is in vivo, mice.

Excerpt: NSCLC cell lines as well as engineered Ba/F3 and NIH3T3 cell lines were used to examine the activity of compounds of formula (I) against 3 general forms of EGFR: native EGFR (the naturally occurring form), EGFR with an activating mutation (delE746_A750 [Del] or L858R; this form is sensitive to first generation EGFR inhibitors), and EGFR with both an activating mutation and a T790M resistance mutation (L858R/T790M or Del/T790M; the addition of the T790M mutation makes this form resistant to first generation EGFR inhibitors). Effects of test compounds on EGFR signaling were assessed by measuring levels of phosphorylated EGFR, effects on in vitro proliferation measured by a growth or viability assay, and effects on in vivo tumor growth measured in mice following daily oral dosing.

By inhibition is commonly meant the change of the read-out against control, counted positive when it falls. `COc1cc(N2CCC(N3CCN(C)CC3)CC2)ccc1Nc1ncc(Cl)c(Nc2ccccc2P(C)(C)=O)n1` [AP26113]: the inhibition at 50 mg/kg (Mus musculus, BaF3, 24 h, read-out: inhibition of levels of phosphorylated EGFR in the tumor) is over 80%. The same compound gave a tumor growth inhibition (daily oral dosing with 50 mg/kg) of over 90%.

Source of the values: patent publication US20140024620A1, “Methods for Inhibiting Cell Proliferation in EGFR-Driven Cancers” (ARIAD PHARMACEUTICALS, INC., priority 2010, published 2014).
